From patent US10213449B2, “Compositions and methods for treating medulloblastoma” (The Board of Trustees of the Leland Stanford Junior …, priority 2016, dated 2019)
Entries after “also recorded” stand apart in the source; their conditions may differ.

Experiments:
[1] = test system: Hh signaling in NIH 3T3 cells exposed to Shh; assay: RT-qPCR of Hh target transcripts in Shh-stimulated NIH 3T3 cells; format: cell-based, mouse
Method: NIH3T3s or SUFU−/− MEFs were plated in 6 well plates at 400,000 cells/well in 10% FBS media constituted of DMEM (Invitrogen11960-069) supplemented with 10% FBS (Hyclone Labs SH30070.02), pen/strep (Life Technologies 15140-122), sodium pyruvate (Invitrogen 11360-070) and glutamax (Invitrogen 35050-061). Cells were then starved in 0.5% FBS for 24 h prior to treatment with 25% ShhN conditioned media in 0.5% FBS+/− drug treatment. GliΔN were treated 48 h post transfection. Unless otherwise stated, all treatments were performed for 6 h. Cell lysis and RNA extraction was performed using Qiashredder homogenizers (Qiagen 79654) and RNEasy mini kits (qiagen 74104) as per manufacturer's instructions. RNA was quantified on a nanodrop spectrophotometer (nanoddrop technologies ND-2000C). Transcript quantification was performed using a TaqMan RNA-to-Ct 1-Step Kit (Life technologies, 4392656) and the Applied Biosystems 7500 RT-PCR system as per the manufacturer's instructions. All primers were commercially available TaqMan® Gene Expression Assay probes purchased from Life Technologies (csnk2a1: Mm00786779_s1, csnk2a2: Mm01243455_m1, csnk2b: Mm00487216_m1, Gli1: Mm00494654_m1, Gli2: Mm.273292, Ccnd1: Mm.273049, Ptch: Mm00436047_m1).

[2] = test system: Gli2 binding at Gli target genes in GNPs; assay: H3K27ac and Gli2 Chipseq in GNPs purified from TBB-injected P7 mice; format: in vivo, mouse; conditions: two injections of TBB (30 mg/kg) over 18 h
Method: Brd4 occupancy at both Gli1 and Gli2 promoters was blocked by the addition of TBB (FIG. 3e). Given that Brd4's primary role as a reader of H3K27ac histone modifications, whether the effect of TBB on Gli target genes correlated with H3K27ac in GNP on a genome-wide scale was next examined. GNPs were purified from P7 mice following two injections of TBB over an 18 h period. Chipseq using H3K27ac and Gli2 antibodies were performed and Gli target genes were binned into either ‘high’ or low H3K27ac′ groups. […] For example, Gli1 had low H3K27ac in GNPs but high H3K27ac in NIH 3T3's. In contrast, Gli2 and Ptch both had high H3K27ac marks in both GNPs and NIH 3T3's.
Wildtype CD1-Elite (Charles River strain 482) P7 mice were randomized to control or treatment groups then given two injections of DMSO (control) or TBB (30 mg/kg) q12h×2. Mice were sacrificed and GNPs were isolated as described in “GNP isolation”. Chomatin immunoprecipitation was performed as previously described. GNPs were cross-linked in 1% formaldehyde for 10 minutes at RT then fixation was stopped by adding 2.5M glycine for 10 minutes. […] ChIP and input DNA was quantified using Qubit DS DNA HS assay as per manufacturer's protocol (ThermoFisher Q32851). […] Library was quantified via Qubit DS DNA HS assay and library quality was determined using an Agilent 2100 Bioanalyzer. […]

[3] = test system: Hh signaling in GNPs; assay: Transcript levels in GNPs following Hh stimulation; format: cell-based, mouse
[4] = NIH 3T3's following Hh stimulation

In the case of `Brc1c(Br)c(Br)c2[nH]nnc2c1Br` [TBB, 4,5,6,7-tetrabromo-2H-benzotriazole], the Gli2 transcript levels [1, 4] is reported as “effective at decreasing”, the Ptch transcript levels [1, 4] is reported as “effective at decreasing” and the “Gli1 mRNA levels” value ([1]; SHH ligand-induced NIH 3T3 cells, as early as 4 h post exposure) is reported as “inhibited; also recorded: dramatic decrease; also recorded: loss of Gli1 induction”. The “Gli binding at 'high' H3K27ac marked Gli target genes compared to low H3K27ac marked genes” value [2] was “statistically significant decrease”, the Gli1 transcript levels [3] was “no change” and the Gli2 transcript levels [3] was “effective at decreasing”. For the same molecule, the Ptch transcript levels [3] was “effective at decreasing”.
